Reference: US11779572B1, “Methods of treating gastrointestinal stromal tumors” (Deciphera Pharmaceuticals, LLC, priority 2022, dated 2023)

How the values were obtained:
GIST = experiment: Phase 1 study, ripretinib 150 mg QD, second-line through fourth-line plus GIST (Example 3): efficacy; format: in vivo, human; details: for Best response (confirmed only): CR / Best response (confirmed only): PR / Best response (confirmed only): Progressive disease / Best response (confirmed only): Stable disease / ORR, n (95% CI) / PFS, Median: 150 mg QD; for ORR, n (95% CI): CR+PR; for PFS, Median: investigator assessment
Procedure: Efficacy and safety results from the escalation and expansion phases of a phase 1 study for patients with GIST treated at ripretinib 150 mg QD as the starting dose in 28-day cycles are presented. Local, investigator-assessed Response Evaluation Criteria in Solid Tumors (RECIST 1.1) response assessments were performed every 2 cycles, and patients in the expansion cohorts who progressed per RECIST 1.1 were allowed to dose escalate to 150 mg BID.
142 patients with GIST in the escalation and expansion phases were treated at 150 mg QD dose. Number of patients by line of therapy were as follows: 31 2nd line, 28 3rd line, and 83≥4th line patients. 135 patients (95.1%) had KIT-mutant GIST, and 7 patients (4.9%) had PDGFRA-mutant GIST.
For example, the confirmed-only complete response (CR), partial response (PR), stable disease, and progressive disease are presented in Table 4. The objective response rate data in Table 4 relates to the proportion of patients with CR+PR. The median PFS data in Table 4 refers to progression-free survival per investigator assessment, by line of therapy.
In Table 4: ^a64 subjects escalated to 150 mg BID among patients with GIST in the 150 mg QD dose group. CI, confidence interval; CR, complete response; NE, not estimable; ORR, objective response rate; PFS, progression-free survival; PR, partial response; SD, […]. Local (investigator) response assessment.

[1] = Coadministration with pantoprazole (proton-pump inhibitor); format: in vivo, human; details: 40 mg QD pantoprazole with 150 mg QD ripretinib
Procedure: The effect of a proton-pump inhibitor on the exposure of ripretinib was evaluated.

CYP2D6 = CYP2D6 (Homo sapiens, UniProt P10635); experiment: Contribution of CYP enzymes to metabolism, in vitro data; format: in vitro ADME; details: base model, based on in vitro data
From the text: (§1) A PBPK model that included a mechanistic absorption model was developed.

CYP3A4 = CYP3A4 (Homo sapiens, UniProt P08684); experiment: as above; format: in vitro ADME; details: base model, based on in vitro data
CYP3A4, sequence (P08684 whole entry): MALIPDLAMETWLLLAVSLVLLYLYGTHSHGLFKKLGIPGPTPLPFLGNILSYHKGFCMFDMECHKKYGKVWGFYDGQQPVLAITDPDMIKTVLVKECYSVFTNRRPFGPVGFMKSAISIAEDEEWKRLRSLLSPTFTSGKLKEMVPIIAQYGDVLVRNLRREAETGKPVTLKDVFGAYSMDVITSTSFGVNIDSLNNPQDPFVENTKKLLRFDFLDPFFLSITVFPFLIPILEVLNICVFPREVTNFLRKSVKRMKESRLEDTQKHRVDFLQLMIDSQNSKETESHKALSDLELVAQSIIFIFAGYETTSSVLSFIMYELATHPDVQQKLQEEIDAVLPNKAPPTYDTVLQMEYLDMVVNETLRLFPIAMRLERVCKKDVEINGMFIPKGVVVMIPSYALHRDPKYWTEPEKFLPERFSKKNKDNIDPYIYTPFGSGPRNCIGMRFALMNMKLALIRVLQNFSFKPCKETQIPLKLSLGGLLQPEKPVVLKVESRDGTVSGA
From the text: as §1

CYP2D6, sequence (P10635 whole entry): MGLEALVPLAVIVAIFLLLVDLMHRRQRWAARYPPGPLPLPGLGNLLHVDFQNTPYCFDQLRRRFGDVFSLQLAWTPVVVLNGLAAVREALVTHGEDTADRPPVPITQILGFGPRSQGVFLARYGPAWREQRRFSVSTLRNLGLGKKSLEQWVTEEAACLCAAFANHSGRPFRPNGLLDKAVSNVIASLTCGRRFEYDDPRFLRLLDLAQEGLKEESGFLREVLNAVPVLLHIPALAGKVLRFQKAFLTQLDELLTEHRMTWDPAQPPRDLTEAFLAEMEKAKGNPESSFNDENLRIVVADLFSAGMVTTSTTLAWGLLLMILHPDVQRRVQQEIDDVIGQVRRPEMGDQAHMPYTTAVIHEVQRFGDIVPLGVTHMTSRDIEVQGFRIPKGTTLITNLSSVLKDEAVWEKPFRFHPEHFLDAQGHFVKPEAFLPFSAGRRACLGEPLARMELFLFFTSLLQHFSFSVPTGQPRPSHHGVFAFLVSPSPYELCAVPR

CCn1c(=O)c(-c2cc(NC(=O)Nc3ccccc3)c(F)cc2Br)cc2cnc(NC)cc21 [ripretinib]
Best response (confirmed only): CR (GIST; 2nd Line (n = 31)): 0 n (%)
Best response (confirmed only): PR (GIST; 2nd Line (n = 31)): 6 (19.4) n (%)
Best response (confirmed only): Progressive disease (GIST; 2nd Line (n = 31)): 4 (12.9) n (%)
Best response (confirmed only): Stable disease (GIST; 2nd Line (n = 31)): 21 (67.7) n (%)
ORR, n (95% CI) (GIST; 2nd Line (n = 31)): 19.4 (7.5, 37.5)
PFS, Median (GIST; 2nd Line (n = 31)): 46.4 weeks
Best response (confirmed only): CR (GIST; 3rd Line (n = 28)): 0 n (%)
Best response (confirmed only): PR (GIST; 3rd Line (n = 28)): 4 (14.3) n (%)
Best response (confirmed only): Progressive disease (GIST; 3rd Line (n = 28)): 6 (21.4) n (%)
Best response (confirmed only): Stable disease (GIST; 3rd Line (n = 28)): 18 (64.3) n (%)
ORR, n (95% CI) (GIST; 3rd Line (n = 28)): 14.3
PFS, Median (GIST; 3rd Line (n = 28)): 36.3 weeks
Best response (confirmed only): CR (GIST; ≥4th Line (n = 83)): 0 n (%)
Best response (confirmed only): PR (GIST; ≥4th Line (n = 83)): 6 (7.2) n (%)
Best response (confirmed only): Progressive disease (GIST; ≥4th Line (n = 83)): 22 (26.5) n (%)
Best response (confirmed only): Stable disease (GIST; ≥4th Line (n = 83)): 49 (59.0) n (%)
ORR, n (95% CI) (GIST; ≥4th Line (n = 83)): 7.2 (2.7, 15.1)
PFS, Median (GIST; ≥4th Line (n = 83)): 23.9 weeks
PFS of second and third-line patients with Exons 9, 11, 13 or 17 KIT mutations (GIST; FIG. 27): comparable PFS
clinical benefit after dose escalation to 150 mg BID (PFS1 vs PFS2) (GIST; regardless of line of therapy, FIG. 25): additional clinical benefit
plasma exposure when ripretinib is coadministered with pantoprazole [1]: No clinically significant differences
share of metabolism assigned to CYP2D6 (CYP2D6): 18%
share of metabolism assigned to CYP3A4 (CYP3A4): 59%
